{"source": "patent US6124310A", "about": "“Enediyne compounds” (priority 1995, dated 2000)", "key": {"[1]": {"tested_on": "UV4 cells", "assay": "Growth inhibition of UV4 cells, 18 hours in 96-well plates under aerobic conditions, without or with purified E. coli nitroreductase and NADH", "assay_type": "cell-based", "settings": "for IC50: Cricetulus griseus, UV4, 18 h, 18 hours, aerobic", "experimental": "The compound prepared in Example 1 was activated by the aerobic nitroreductase from E. coli, by being incubated with UV4 cells for 18 hours in 96-well plates under aerobic conditions."}, "[2]": {"tested_on": "tumour cell cultures", "settings": "naturally-occurring enediyne antibiotics, literature; cited from earlier work"}}}
{"compound": "O=C(OCc1ccc([N+](=O)[O-])cc1)N1c2ccccc2C23OC24CCCC3C#C/C=C\\C#CC14", "note": "(racemic) [compound 2, (6R,6aR,10R,10aS,14Z)-(±)-(4-nitrophenyl)methyl 7,8,9,10-tetrahydro-6a,10a-epoxy-6, [3]-hexene[1,5]diynophenanthridine-5(6H)-carboxylate]", "values": [{"measurement": "IC50", "setting": "[1]; compound alone", "value": 18.1, "unit": "µM"}, {"measurement": "IC50", "setting": "[1]; together with purified E. coli nitroreductase enzyme (1 μg/mL) and NADH (1 mM, as cofactor)", "value": 0.19, "unit": "µM"}, {"measurement": "fold activation by the enzyme", "setting": "[1]; ratio of IC50 without / with E. coli nitroreductase + NADH, 1080 min", "value": 115, "unit": "fold"}]}
{"compound": "O=C(Oc1ccccc1)N1c2ccccc2C23OC24CCCC3C#C/C=C\\C#CC14", "note": "(stereo not shown) [formula A']", "values": [{"measurement": "showed any activation by the enzyme", "setting": "[1]; E. coli nitroreductase, in words: 'neither ... showed any activation'", "value": "neither"}]}
{"compound": "calicheamicin", "values": [{"measurement": "IC50 values for inhibition of growth of tumour cell cultures", "setting": "[2]", "value": "low pM range"}]}
{"compound": "dynemicin", "values": [{"measurement": "IC50 values for inhibition of growth of tumour cell cultures", "setting": "[2]", "value": "low pM range"}]}
{"compound": "esperamicin", "values": [{"measurement": "IC50 values for inhibition of growth of tumour cell cultures", "setting": "[2]", "value": "low pM range"}]}
